According to patent US20210106567A1, “COMPOSITIONS AND METHODS FOR INHIBITING CARP-1 BINDING TO NEMO” (United States Government As Represented By The Department …, priority 2019, published 2021):
Each block holds one molecule with its values, some of them ahead of it. Ends that are not written are not given here.

Experiments:
[1] = target: T1, NEMO (221-260) peptide (Homo sapiens, UniProt Q9Y6K9); test: Surface Plasmon Resonance kinetics of CARP-1 peptide binding with NEMO peptide; details: SPR
T1 construct: host or cells: chemical synthesis
Procedure: Next, kinetics of CARP-1 binding with NEMO were determined by Surface Plasmon Resonance (SPR) Technology (Profacgen, Shirley, N.Y.). Briefly, CARP-1 (551-580) peptide (Amino terminal-[…]-Carboxyl terminal; SEQ ID NO: 6) was dissolved in water, and various concentrations of CARP-1 Peptide were manually printed onto the bare gold-coated (thickness 47 nm) PlexArray Nanocapture Sensor Chip (Plexera Bioscience, Seattle, Wash., US) at 40% humidity. Each concentration was printed in replicate, and each spot contained 0.2 μL of sample solution. The chip was incubated in 80% humidity at 4° C. for overnight, and rinsed with 10×PBST for 10 min, 1×PBST for 10 min, and deionized water twice for 10 min. The chip was then blocked with 5% (w/v) non-fat milk in water overnight, and washed with 10×PBST for 10 min, 1×PBST for 10 min, and deionized water twice for 10 min before being dried under a stream of nitrogen prior to use. The binding reactions with NEMO (221-260; SEQ ID NO: 7) peptide (Amino terminal-[…]-Carboxyl terminal; SEQ ID NO: 7) were performed in PBST buffer (0.01M phosphate buffered saline (0.138 M NaCl; 0.0027 M KCl), 0.05% Tween-20, pH 7.4). SPRi measurements were performed with PlexAray HT (Plexera Bioscience, Seattle, Wash., US). […] The signal changes after binding and washing (in AU) were recorded as the assay value. Selected protein-grafted regions in the SPR images were analyzed, and the average reflectivity variations of the chosen areas were plotted as a function of time. Real-time binding signals were recorded and analyzed by Data Analysis Module (DAM, Plexera Bioscience, Seattle, Wash., US). […]
Association and dissociation rate constants were calculated by numerical integration and global fitting to a 1:1 interaction model and the equation: dRU(t)/dt=kaC(R^max−RU(t))−kdRU(t), where RU(t) is the response at time t, Rmax is the maximum response, C is the concentration of analyte in solution, ka is the association rate constant, kd is the dissociation rate constant, and RU (0)=0.

[2] = system: parental and chemo-resistant human and murine TNBC cells and parental renal cancer cells; test: Cytokine ELISA of culture media, chemotherapy-induced secretion; format: cell-based; details: single agent
[3] = target: T2, Flag-CARP-1 (546-580) binding with Biotin-NEMO (221-261) (Homo sapiens, UniProt Q8IX12); test: AlphaLISA assay of CARP-1/NEMO peptide binding (HTS format); details: read-out: IC50, inhibition of binding of CARP-1 (546-580) with NEMO (221-261) peptide
T2 construct: Flag-tagged CARP-1 (546-580); purchased Peptides America, Fairfax, Va; host or cells: chemical synthesis
Source text: The predicted kinetics of interaction of CARP-1 (551-600; SEQ ID NO: 5) and NEMO (221-261; SEQ ID NO: 2) epitopes was further validated by utilizing respective, chemically synthesized peptides to determine their in-solution binding by SPR technology (Sekhar et al. (2019) Cancers (Basel) 11). […] On the collective basis of the data in FIG. 1, and biophysical and SPR data above, in vitro binding assays were developed utilizing chemically synthesized CARP-1 and NEMO peptides. In the first instance, CARP-1 (551-580; SEQ ID NO: 6) and NEMO (221-261; SEQ ID NO: 2) peptides were used to carry out buffer optimization and DMSO tolerance of the assay. […] Presence of 0.01% tween minimizes non-specific binding and generates higher reproducibility as noted by smaller error bars in FIG. 15A. […]
The AlphaLISA assay for high throughput screening: For screening of a library of chemical compounds, an […] assay was developed and optimized for use in 384-well format (SAMDI Tech, Chicago, Ill.). […] The assay signal (Fluorescence) was measured at 680 nm excitation and 615 nm emission wavelengths to determine assay robustness and DMSO tolerance. […] The plates were read on a Pherastar FS plate reader. […] Those wells were further analyzed to investigate the 8 compounds individually in duplicate.

[4] = system: MDA-MB-468 TNBC cells; test: MTT cell viability, SNI-1 analogs; format: cell-based, human; details: 24 h
Procedure: FIGS. 22A-B show SNI-1 analogs enhance Adriamycin inhibition of TNBC cell growth. FIGS. 22A-B show cells treated with indicated dose of noted agent for 24 h, and their viabilities determined by MTT assay. Columns represent means of three independent experiments; bars, SE.
MDA-MB-468 TNBC cells were next treated with each of the analog in vitro as a single agent or in combination with Adriamycin in vitro.

[5] = system: mammospheres derived from human TNBC PDX tumors; test: Three-dimensional mammosphere assay (MTT); format: cell-based; details: Homo sapiens; 5 μM for 48 h
Procedure: Three-dimensional Mammosphere Assays: The PDX tumor cells were dissociated from the tumor fragments, and cultured for 2-dimensional and mammosphere studies in vitro (Cheriyan et al. (2016) Oncotarget 7, 73370-73388). Briefly, the cells were washed twice in 1×PBS, trypsinized, and pelleted at 200×g at room temperature. Cells were then re-suspended in 5 ml of mammosphere media (DMEM/F12 containing 2 mM L-glutamine, 100 U/ml penicillin, 100 U/ml streptomycin, 1×B27 supplement, 20 ng/ml recombinant human epidermal growth factor (EGF; Sigma), 10 ng/ml recombinant human basic fibroblast growth factor (bFGF; R&D Systems). Approximately 5000 viable cells per ml was then seeded in an ultra-low adherent 60 mm plate and incubated at 37° C. and 5% CO2 for two weeks without disturbing the plates. After the mammospheres formed, fresh media with or without Adriamycin (5 μM), SNI-1 (2.5 or 5.0 μM), or a combination of these agents was added and the cells incubated for additional 48 h at 37° C. and 5% CO2. The mammospheres in the untreated and treated plates were photographed, and the cells were then dissociated to determine their viabilities by the MTT assay (Cheriyan et al. (2016) Oncotarget 7, 73370-73388).

[6] = system: p65/RelA activation and phosphorylation of NEMO; test: Western blot for canonical NF-κB activation; format: cell-based; details: single agent, Western blot
Source text: (§1) The cells were lysed to prepare protein extracts.

[7] = system: MDA-MB-231 TNBC cells; details: Wen et al. (2018); read-out: IC50, growth inhibition; cited from earlier work
[8] = system: 4T1 TNBC tumors; test: 4T1 TNBC syngeneic tumor efficacy study in Balb/c mice; format: in vivo, mouse; details: ELISA of sera
Procedure: Establishment of TNBC cell-derived xenografts in Syngeneic mice: Generation of 4T1 TNBC cell-derived sub-cutaneous xenografts in Balb/c mice were performed (Cheriyan et al. (2016) Oncotarget 7, 73370-73388; and Cheriyan et al. (2017) Oncotarget 8, 104928-104945). BALB/cAnNCr, 6-8-weeks old, female mice were purchased from Charles River Laboratories (Horsham, Pa.). Following suitable acclimation of animals, 1×10^6 4T1 TNBC cells were re-suspended in 200 μl of sterile saline, and implanted in the flanks using a 27-gauge needle. Tumors were allowed to grow to 500-1000 mg (˜10 days), and the aseptically harvested, minced into 3-4 mm^3 (30 mg) fragments and transplanted SC into naïve recipient mice using a standard 12 gauge trocar to serially maintain the tumor in vivo. For efficacy studies, tumors serially maintained in vivo were aseptically harvested and minced into 3-4 mm^3 (30 mg) fragments, then bilaterally transplanted subcutaneously along the flanks using a standard 12 gauge trocar. […] For the efficacy studies, SNI-1 was formulated in 8% DMSO (v/v) and 8% Cremophor (v/v) in cell grade water, pH4 as diluent.
Clinical grade ADR stock (2 mg/mL) was diluted to the appropriate concentration with cell grade water; pH4 and clinical grade CIS (1 mg/ml) diluted with USP 0.9% saline; pH6). Mice were monitored daily for changes in condition and body weight. Tumors were measured three times weekly by caliper and tumor volume (mg) was calculated using the following formula: (A×B2)/2 where A and B are the tumor length and width (in mm), respectively. […] Efficacy was also assessed quantitatively using tumor growth delay (T−C) defined as the difference between the median time (in days) required for the treatment group tumors (T) to reach 1000 mg and the median time (days) for the control group tumors to reach the same volume. Post last treatment, tumor tissue and samples from various organs (spleen, liver, kidney, heart, bone, and lungs) were collected. Additionally, the whole blood samples were obtained from a representative tumor-bearing mouse from each group via terminal cardiac puncture. Immuno-histochemical analyses of the tumor and tissue samples were performed for expression of activated RelA (serine 536 phosphorylated p65), total RelA, cleaved caspase-3, and CARP-1 proteins. The levels of pro-inflammatory cytokines in the sera were analyzed by sandwich ELISA assays following methods detailed herein (Cheriyan et al. (2016) Oncotarget 7, 73370-73388; and Cheriyan et al. (2017) Oncotarget 8, 104928-104945).

[9] = system: cleaved RIPK1; test: Western blot for RIPK1 cleavage; format: cell-based
Source text: as §1

[10] = system: MDR1; test: Levels of drug efflux pump MDR1; format: cell-based, human; details: MDA-MB-468 cells
Source text: Of note is that SNI-1 in combination with Adriamycin provoked a greater inhibition of tumor growth when compared with the tumor growth inhibition noted in animals treated with either agent alone. […] Since TNBCs and many other cancers are often known to express drug efflux pumps that contribute to lower efficacy of drugs in clinic and development of drug-resistant tumors, it is likely that the presence/expression of these drug efflux pumps function in part to interfere with a robust anti-tumor response to a combination of SNI-1 and Adriamycin.

T1 sequence (Q9Y6K9 222-261, one chain of several): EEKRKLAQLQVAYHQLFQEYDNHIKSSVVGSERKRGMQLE
T2 sequence (Q8IX12 546-580 limits assumed): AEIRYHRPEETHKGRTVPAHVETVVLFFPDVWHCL

Kd ([1]; chemically synthesized peptides, read-out: equilibrium dissociation constant (KD Value)): 102 nM | kon ([1]; read-out: Ka (association rate constant)): 2070 M⁻¹ s⁻¹ | koff ([1]; read-out: Kd (dissociation rate constant)): 0.000212 s⁻¹
Molecule: HRPEETHKGRTVPAHVETVVLFFPDVWHCL [CARP-1 (551-580)]

Molecule: O=c1[nH]cc(F)c(=O)[nH]1 [5-FU]
levels of TNFα, IL-8, and IL-1β in the media [2]: robust increase

IC50 [3]: ~25000 nM
Molecule: COc1ccc(S(=O)(=O)Nc2ccccc2C(=O)NCCc2ccccc2)cc1 [SNI-2, 2-{((4-methoxyphenyl)sulfonyl)amino}-N-(2-phenylethyl)benzamide]

Molecule: Cc1ccc(-n2ccnc2S(=O)(=O)CC(=O)c2ccc(O)c(O)c2)cc1 [GL-213]
loss of cell viability in combination with Adriamycin versus Adriamycin alone [4]: loss of cell viabilities that were greater

Molecule: Cc1ccc(-n2cnnc2S(=O)(=O)CC(=O)c2ccc(O)c(O)c2)cc1 [GL-210]
loss of cell viability in combination with Adriamycin versus Adriamycin alone [4]: minimal reduction in cell viabilities

Molecule: O=C(CSc1nc(-c2ccccc2)cs1)c1ccc(O)c(O)c1 [GL-216]
loss of cell viability in combination with Adriamycin versus Adriamycin alone [4]: loss of cell viabilities that were greater

Molecule: O=C(CSc1nc2ccccc2s1)c1ccc(O)c(O)c1 [GL-215]
loss of cell viability in combination with Adriamycin versus Adriamycin alone [4]: moderate reduction in cell viabilities

Molecule: Cc1ccc(-n2cnnc2SCC(=O)c2ccc(O)c(O)c2)cc1 [GL-208]
loss of cell viability in combination with Adriamycin versus Adriamycin alone [4]: minimal reduction in cell viabilities

Molecule: Cc1ccc(-n2ccnc2SCC(=O)c2ccc(O)c(O)c2)cc1 [GL-211]
loss of cell viability in combination with Adriamycin versus Adriamycin alone [4]: minimal reduction in cell viabilities

Molecule: Cc1ccc(-n2cnnc2[S+]([O-])CC(=O)c2ccc(O)c(O)c2)cc1 (centres unmarked) [GL-209]
loss of cell viability in combination with Adriamycin versus Adriamycin alone [4]: loss of cell viabilities that were greater

Molecule: COc1cccc2c1C(=O)c1c(O)c3c(c(O)c1C2=O)C[C@@](O)(C(=O)CO)C[C@@H]3O[C@H]1C[C@H](N)[C@H](O)[C@H](C)O1 [Adriamycin]
inhibition at 5 µM [5]: ~30% | p65/RelA activation and phosphorylation of NEMO [6]: robust increase | levels of TNFα, IL-8, and IL-1β in the media [2]: robust increase | IC50 [7]: ~3000 nM | serum levels of TNFα and IL-1β [8]: robustly stimulated | expression of cleaved RIPK1 [9]: induced expression of cleaved RIPK1 | levels of drug efflux pump MDR1 [10]: moderate increase

Molecule: Cc1ccc(-n2ccnc2[S+]([O-])CC(=O)c2ccc(O)c(O)c2)cc1 (centres unmarked) [GL-212]
loss of cell viability in combination with Adriamycin versus Adriamycin alone [4]: moderate reduction in cell viabilities
